Measured values reported in PubChem BioAssay (NCI).
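Results reflect a 48-hour exposure of cells in 96-well plates to compound at five concentrations. GI50 marks 50% less growth. At the TGI there is no net growth.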

How the values were obtained:
Assay in all cases: NCI tumour cell line growth inhibition, 48 h
[1] = test system: P388 leukemia
[2] = test system: P388/ADR leukemia
[3] = test system: SN12K1 renal
[4] = test system: MDA-N
[5] = test system: PC-3 prostate
[6] = test system: T-47D breast
[7] = test system: BT-549 breast

Row | Compound | TGI [1] | TGI [2] | TGI [3] | TGI [4] | TGI [5] | TGI [6] | TGI [7] | GI50 [5] | GI50 [6] | GI50 [7]
1 | O=C(O)C1CCC(=O)N1S(=O)(=O)c1ccccc1 (stereo unspecified) | > 100 µM | > 100 µM | > 100 µM |  |  |  |  |  |  | 
2 | CC(=O)C=NCC(=O)O |  |  |  | > 100 µM | > 100 µM | > 100 µM | > 100 µM |  |  | 
3 | COc1ccc(-c2nn(-c3cccc(NC(=O)Nc4ccccc4)c3)cc2-c2ccncc2)cc1Cl |  |  |  |  | 4.5 µM | 5.39 µM |  | 1.84 µM | 2.19 µM | 
4 | Fc1ccc(-c2nn3c(-c4cc(C(F)(F)F)cc(C(F)(F)F)c4)nnc3s2)cc1 |  |  |  |  | > 50 µM |  | > 50 µM | > 50 µM |  | > 50 µM
5 | Clc1ccc(CNc2nc(Cl)c3[nH]cnc3n2)cc1Cl |  |  |  | > 100 µM | > 100 µM | 51.3 µM | 84.5 µM |  |  | 
6 | CCC(=O)NC(Nc1cccc(F)c1)(C(F)(F)F)C(F)(F)F |  |  |  | > 100 µM | > 100 µM | > 100 µM | > 100 µM |  |  | 
7 | NC1(C(=O)O)CCc2ccc(N(CCCl)CCCl)cc2C1 (stereo unspecified) | 7.27 µM | 35.1 µM | > 100 µM |  |  |  |  |  |  | 
